From US8324284B2, “Migrastatin analogs and uses thereof” (Sloan-Kettering Institute for Cancer Research, priority 2003, dated 2012)

Legend:
[1] = test system: 4T1 tumor cells; assay: Cell proliferation assay (MTT); conditions: up to 20 μM, 48 h
Procedure: Cell Proliferation Assay: 4×10^4 of 4T1 tumor cells in RPMI-1640 medium containing 10% FBS were seeded into wells of 96-multiwell plates (Becton-Dickinson) in the presence or absence of chemical compounds and then incubated at 37° C. for 48 h. An MTT kit (Cell Proliferation Kit I, Roche) (a colorimetric assay) was used to quantify cell proliferation and viability. The number of living cells, thus the total metabolic activity, directly correlates to the amount of purple formazan crystals formed (monitored by the absorbance).

[2] = Metabolic stability in mouse plasma; assay type: in vitro ADME; conditions: mouse plasma/PBS, 37° C.; for stability (t1/2, mouse plasma), in words: 60 min of incubation, stable = intensity of HPLC signal unchanged
Procedure: Mouse Plasma Stability Studies (Table 5): HPLC conditions: The sample is injected and separated using an Inertsil ODS3 6u 3×150 mm column with a mobile phase of MeCN and water (50% for migrastatin) at a flow of 0.4 mL/min, monitored at 220 nm at 0.02 AUFS (the retention time for migrastatin is ca. 4 min, the identity of this peak was confirmed by mass spectral analysis). Incubation and sample preparation conditions: A solution (ca. 30 mM) of chemical compound (Table 5) in DMSO is prepared. 2 μL of the solution is added to a mixture containing 200 μL of mouse plasma and 800 μL of PBS. The resulting solution is put into a water bath at 37° C., and 100 μL of sample is withdrawn at 10, 20, 30, 45, and 60 min. The precipitate is removed by centrifugation and 20 μL of the supernatant is injected onto the HPLC.

[3] = test system: 4T1 mouse breast tumor cells; assay: Wound-healing assay with 4T1 cells; assay type: cell-based; conditions: with serum, 200 μM, overnight
Description: In the wound healing assay, standard scratches (i.e., wounds) were made through a confluent 4T1 cell layer. In the absence of serum, cells would not migrate across the empty space created by application of the scratch. Upon addition of serum containing migration-enabling factors, migration of 4T1 cells across the scratch was induced. Exposure to these cells to inventive compounds allowed the evaluation of the cell migration inhibitory activity of these compounds.
Wound-Healing Assay (See FIG. 6). 4T1 mouse breast tumor cells in RPMI-1640 medium containing 10% fetal bovine serum (FBS) were seeded into wells of 24-multiwell plates (Becton-Dickinson). After cells grew to confluence, wounds were made with sterile pipette tips. Cells were washed with Phosphate Buffered Saline (PBS) and refreshed with growth medium containing different concentrations of chemical compounds. After overnight incubation at 37° C., cells were fixed and photographed.

[4] = test system: HUVEC; assay: Tube formation assay; assay type: cell-based, human; conditions: minimal concentration causing definite disturbance of tube network; 16-18 h; tested 200, 100, 50, 25, 10 μM
Procedure: A protocol was designed based on the instructions from the provider (BD Bioscience, San Jose, Calif.). Briefly, wells of a 48 well culture dish were covert with 150 μL matrigel and the matrigel was gelatinized for 30 min at 37° C. A 80-90% confluent HUVEC (BD Bioscience, San Jose, Calif.) culture was trypsin treated, the detached cells were collected by centrifugation and resuspended in EGM-2 media (BD Bioscience, San Jose, Calif.). Cell concentration was adjusted to 100.000 cells/mL. 400 μL of the cell suspension were filled in the matrigel coated wells, and a solution of the inhibitor was added to the intended final concentration. The plates were incubated at 37° C. with 5% CO2 for 16-18 h. Media was removed, and the matrigel surface was washed twice with 500 μL PBS before cells were labeled with 250 μL […] Calcein AM (Pierce, Rockford, Ill.) in PBS for 30 min at 37° C. After two additional washing steps (500 μL PBS) cells were visualized under an inverted microscope. Fluorescence was excited at 488 nm and recorded at 538 nm. The minimum effect concentration was defined as the minimal inhibitor concentration that caused a definite disturbance of the complexity of the formed tube network.

[5] = test system: cell migration; assay: Chamber cell migration assay (preliminary); assay type: cell-based; conditions: 36 h, tested 200, 100, 50, 25, 10 μM
Procedure: Cells were grown in an appropriate media to 70 to 80% confluence and incubated in serum and growth factor free media for 24 h. Cells were detached by trypsin treatment, collected by centrifugation and resuspended in serum free media to a final concentration of 150,000 cells/mL. 400 μL of the cell suspension were loaded into a fibronectin coated insert for 24 well multidishes. 750 μL fully supplemented media were applied to the compartment under the insert. To both chambers the inhibitor was added at the intended concentration and the plates were incubated for 36 h at 37° C., 5% CO2. […] The resulting CyQuant assay solution was transferred to the cavities of a 96 well microtiter plate and the fluorescence signal was recorded in an appropriate reader. The CyQuant dye forms a highly fluorescent complex with DNA, thus the fluorescence signal is proportional to the number of cells that migrated through the membrane in the presence of the test compound (N^inh). […] The positive control fluorescent reading correlates with the number of cells that migrate through the membrane in the absence of inhibitor (N^+). […] The negative control fluorescent reading correlates with the number of cells that migrate through the membrane through non-directed processes (N^−). The anti-migratory effect of a test compound is determined by the ratio (N^inh−N^−)/(N^+−N^−).

[6] = test system: KYSE-520 cells; assay: Wound healing (scratch) assay; assay type: cell-based; conditions: 28 to 30 h, tested 200, 100, 50, 25, 10 μM
Procedure: The wound healing assay was performed based on the method described by Nakae et al. (Nakae et al., J. Antibiotics (2000), 53, 1130-1136). Briefly, adherent cells were grown in a suitable media to confluence (e.g. KYSE-520 cells in RPMI-1640 with 10% FBS). Cells were starved for 24 h in serum free media. A scratch (ca. 0.5 mm) was applied and the cell layer was washed twice with PBS after removal of the media. Fresh, serum free media with the test compound at the desired concentration was added and the cells were incubated for 28 to 30 h at 37° C., 5% CO2. The scratch size was compared to that observed for cells exposed to 100 μM Migrastatin. Test compounds associated with a scratch size equal to or larger than that observed for cells exposed to 100 μM Migrastatin were deemed to have cell migration inhibitory activity at least equal to Migrastatin.

[7] = test system: 4T1 tumors; assay: 4T1 primary tumor growth in mice; assay type: in vivo, mouse; conditions: 10 mg/kg i.p. daily Day 7-25, final tumor size Day 28
Procedure: Female BALB/c mice (6-8 week old) were purchased from the Jackson Laboratory (Bar Harbor, Me.). All mice were housed at the Weill Medical College of Cornell University Animal Facilities in accordance with the Principles of Animal Care (NIH publication no. 85-23, revised 1985). 4T1 tumor cells (1×10^5) were injected subcutaneously into the abdominal mammary gland area of mice in 0.1 ml of a single-cell suspension in phosphate buffered saline (PBS) on Day 0. The dosage of tumor implantation was empirically determined to give rise to tumor of ˜10 mm in diameter in untreated wild type mice in 21-23 days. On Day 7, when the tumors averaged in size ˜4-5 mm in diameter, migrastatin analogs or control PBS saline were given every day by intraperitoneal injection at 10 mg/kg or 20 mg/kg per mouse until Day 25. On Day 28, the mice were sacrificed. […] Primary tumors were measured using electronic calipers on the day when the mice were sacrificed. […] Numbers of metastatic 4T1 cells in lung were determined by the clonogenic assay.^63 In brief, lungs were removed from each mouse on Day 28, finely minced and digested in 5 ml of enzyme cocktail containing 1×PBS and 1 mg/ml collagenase type IV for 2 hours at 37° C. on a platform rocker. […]
Effect of migrastatin analogs on 4T1 tumor cell growth (See, FIG. 5). […] On Day 28, primary tumors were measured using electronic calipers. […]

[8] = test system: 4T1 tumor lung metastasis; assay: 4T1 tumor lung metastasis in syngeneic mice; assay type: in vivo, mouse; conditions: mean and standard deviation
Procedure: Female BALB/c mice (6-8 week old) were purchased from the Jackson Laboratory (Bar Harbor, Me.). All mice were housed at the Weill Medical College of Cornell University Animal Facilities in accordance with the Principles of Animal Care (NIH publication no. 85-23, revised 1985). 4T1 tumor cells (1×10^5) were injected subcutaneously into the abdominal mammary gland area of mice in 0.1 ml of a single-cell suspension in phosphate buffered saline (PBS) on Day 0. The dosage of tumor implantation was empirically determined to give rise to tumor of ˜10 mm in diameter in untreated wild type mice in 21-23 days. On Day 7, when the tumors averaged in size ˜4-5 mm in diameter, migrastatin analogs or control PBS saline were given every day by intraperitoneal injection at 10 mg/kg or 20 mg/kg per mouse until Day 25. On Day 28, the mice were sacrificed. This regiment of migrastatin analogs was well tolerated with no signs of overt toxicity. Every group included five mice. Primary tumors were measured using electronic calipers on the day when the mice were sacrificed. Tumor size was the square root of the product of two perpendicular diameters. Numbers of metastatic 4T1 cells in lung were determined by the clonogenic assay.^63 In brief, lungs were removed from each mouse on Day 28, finely minced and digested in 5 ml of enzyme cocktail containing 1×PBS and 1 mg/ml collagenase type IV for 2 hours at 37° C. on a platform rocker. After incubation, samples were filtered through 70 uM nylon cell strainers and washed twice with PBS. Resulting cells were suspended and plated serially diluted in 10 cm tissue culture dishes in medium RPMI1640 containing 60 uM thioguanine for clonogenic growth. 6-Thioguanine-resistant tumor cells formed foci after 14 days, at which time they were fixed with methanol and stained with 0.03% methylene blue for counting.
Treatment 4T1 tumor lung metastasis in syngeneic mice with migrastatin analogs (See, FIG. 4). 4T1 tumor cells (10^5) were injected s.c. in the abdominal mammary gland with 0.1 ml of a single-cell suspension. Macroketone or macrolactam at 10 mg/kg or 20 mg/kg was given i.p. on Day 7 when the tumor size was about 5 mm in diameter, and every day until Day 25. On Day 28, the mice were sacrificed. Each group comprised five mice. Lung metastasis was measured by the 6-thiogunine clonogenic assay. The mean and standard deviation are presented. In the control group (daily PBS injection), there were 61300±18900 colonies.

Row | SMILES | cytotoxic or anti-proliferative effects on 4T1 cells [1] | stability (t1/2, mouse plasma) [2] [min] | stability (t1/2, mouse plasma), in words [2] | inhibition of 4T1 cell migration across the scratch [3] | Minimum effect concentration [4] [µM] | IC50 [5] [µM] | Minimum effect concentration [6] [µM] | stability (t1/2, mouse plasma), in words ([2]; listed as migrastatin) | effect on tumor growth in mice [7] | lung metastasis, colonies (6-thioguanine clonogenic assay) ([8]; 10 mg/kg i.p. daily Day 7-25, Day 28) [colonies] | lung metastasis, colonies (6-thioguanine clonogenic assay) ([8]; 20 mg/kg i.p. daily Day 7-25, Day 28) [colonies]
1 | COC1C=CCCCCC(=O)OCC(C)=CC(C)C1O (stereo not shown) [macrolactone (48), Macrolactone] | did not have any cytotoxic or anti-proliferative effects up to 20 μM | <5 | hydrolyzed rapidly | almost completely inhibited cell migration across the scratch | – | – | – | – | – | – | –
2 | CO[C@H]1/C=C/CC/C=C/C(=O)O[C@H]([C@H](C)C(=O)CCCC2CC(=O)NC(=O)C2)/C(C)=C\[C@@H](C)[C@@H]1O [migrastatin (1), Migrastatin] | – | – | stable^1 | not as great | 100 | 200 | 100 | completely inert toward lactone opening | – | – | –
3 | COC1C=CCCCCC(=O)CCC(C)=CC(C)C1O (stereo not shown) [macroketone (60), Macroketone] | – | – | – | – | – | – | – | – | minor effect on tumor growth | 3875±2525 | 650±575
